From ChEMBL document CHEMBL1833973, “Biological evaluation and docking studies of natural isocoumarins as inhibitors for human kallikrein 5 and 7” (Bioorg Med Chem Lett, 2011)
Active and inactive are the calls of the source. The rule behind the calls is not given here.

Tests used:
[1] = target: T1, Kallikrein-7 (Homo sapiens, UniProt P49862); experiment: Inhibition of human kallikrein 7 using Abz-KLYSSKQ-EDDnp as substrate by Lineweaver-Burk plot analysis
Target sequence in this assay (P49862 whole entry): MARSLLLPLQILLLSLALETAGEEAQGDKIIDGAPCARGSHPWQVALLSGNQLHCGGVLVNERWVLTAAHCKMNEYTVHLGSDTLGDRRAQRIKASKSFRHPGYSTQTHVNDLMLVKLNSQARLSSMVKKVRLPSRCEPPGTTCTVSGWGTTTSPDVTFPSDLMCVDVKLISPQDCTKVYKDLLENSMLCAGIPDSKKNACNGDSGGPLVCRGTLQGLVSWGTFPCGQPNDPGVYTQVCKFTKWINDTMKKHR

[2] = target: T2, Kallikrein-5 (Homo sapiens, UniProt Q9Y337); experiment: Inhibition of human kallikrein 5 using Abz-KLRSSKQ-EDDnp as substrate by spectrofluorimetric assay
T2 sequence (Q9Y337 whole entry): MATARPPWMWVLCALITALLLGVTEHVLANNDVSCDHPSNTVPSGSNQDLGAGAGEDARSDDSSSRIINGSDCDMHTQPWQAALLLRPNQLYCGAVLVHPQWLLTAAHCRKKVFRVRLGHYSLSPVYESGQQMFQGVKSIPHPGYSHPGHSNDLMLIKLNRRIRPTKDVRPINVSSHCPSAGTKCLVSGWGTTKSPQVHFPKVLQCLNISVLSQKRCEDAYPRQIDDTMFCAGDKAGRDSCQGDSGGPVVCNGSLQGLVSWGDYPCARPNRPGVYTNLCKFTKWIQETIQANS

[3] = target: T1, Kallikrein-7; experiment: Inhibition of human kallikrein 7 using Abz-KLYSSKQ-EDDnp as substrate by spectrofluorimetric assay
Target sequence in this assay (P49862 whole entry): as the sequence (P49862 whole entry) above

[4] = target: T2, Kallikrein-5; experiment: Inhibition of human kallikrein 5 using Abz-KLRSSKQ-EDDnp as substrate by Lineweaver-Burk plot analysis
[5] = target: T1, Kallikrein-7; experiment: Competitive inhibition of human kallikrein 7 using Abz-KLYSSKQ-EDDnp as substrate by Lineweaver-Burk plot analysis
Target sequence in this assay (P49862 30-253 limits assumed): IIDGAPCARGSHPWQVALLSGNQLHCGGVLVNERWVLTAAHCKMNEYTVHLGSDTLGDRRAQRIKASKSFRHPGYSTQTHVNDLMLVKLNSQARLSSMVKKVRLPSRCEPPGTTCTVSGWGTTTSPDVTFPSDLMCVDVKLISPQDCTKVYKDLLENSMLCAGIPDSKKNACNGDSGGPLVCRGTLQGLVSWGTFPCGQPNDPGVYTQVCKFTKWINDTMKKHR

Row | SMILES | Ki [1] [µM] | IC50 [2] [µM] | IC50 [3] [µM] | Ki [4] [µM] | inhibition [5]
1 | COc1cc2cc3c(c(O)c2c(O)c1-c1c(OC)cc2cc4c(c(O)c2c1O)C(=O)O[C@H](C)C4)C(=O)O[C@H](C)C3 [VIOXANTHIN] | 37.2 | 53.7 | 135 | 22.9 | 
2 | COc1cc2c(OC)c3cc(C)oc(=O)c3c(O)c2c(O)c1-c1c(OC)cc2c(OC)c3cc(C)oc(=O)c3c(O)c2c1O | 12.2 | 72.9 | 112 | 24.4 | Active
3 | COc1cc(O)c2c(O)c3c(=O)oc(C)cc3c(OC)c2c1 [PAEPALANTINE] | 70.7 | 367 | 166 | 47.5 | 
